Assay results as given in US9309247B2, “2-substituted imidazo[4,5-D]phenanthroline derivatives and their use in the treatment of cancer” (Aptose Biosciences Inc., priority 2013, dated 2016).
Where two headings read alike, the source gives them in different places.

Legend:
[1] = tested on: human colon carcinoma cells HT-29; test: XTT cell proliferation assay, HT-29; type: cell-based; details: 5 days incubation, read-out: Antiproliferative activity, Colon HT-29
Description: (§1) Exemplary compounds 1-8 were tested for anti-cancer activity in vitro using human renal cancer cells (ACHN and CAK-1), human pancreatic cells (BXPC3 and SU-86-86), human prostate cancer cell (DU14), human colon carcinoma cells (HT-29 and KM-12), leukemia cells (HL60), brain cancer/tumour cells (SK-A-AS, U87-MG), and human non-small cell lung cancer cells (H460). Compounds 1-8 are the specific embodiments of Formula (I) and Formula (IV) as described above in this application.
(§2) The cells were maintained as a monolayer in a growth medium; McCoy's 5A modified medium (Sigma, St. Louis, Mo.), supplemented with 2 mM L-glutamine (Gibco, Grand Island, N.Y.), 10% fetal bovine serum (FBS) (Multicell, WISENT Inc. St-Bruno, QC), antibiotic-antimycotic (Multicell), at 37° C. in a 5% CO2-humidified incubator. Cells were transferred onto 150 mm tissue culture plates and grown until sub-confluency (70-80%) prior to their use. The in vitro antiproliferative activity of compounds was evaluated by incubating the cells with varying concentrations of exemplary compounds as shown in Table 1 for 5 days. The efficacy of these compounds in this cell proliferation assay was measured based in the ability of live cells to reduce the tetrazolium salt XTT to orange colored compounds of formazan (XTT cell proliferation kit IT, Roche Applied Science, Montreal, QC).

[2] = tested on: EL4 (mouse, lymphoma); test: Cell growth inhibition assay, EL4; type: cell-based; details: five days of incubation, XTT; read-out: IC50 EL4 (ms)
Description: (§3) In this study, compounds 1-8 were screened in vitro against a panel of four mouse lymphoma cell lines and two human lymphoma cell line for cell growth inhibition activity. Following treatment, half maximal inhibitory concentrations (IC50) were determined with the objective of selecting the most efficacious compounds for evaluation of in vitro absorption, distribution, metabolism, and excretion (ADME) screening.
(§4) Similarly, human Burkitt's lymphoma Ramos cells (ATCC CRL-1596) were grown in suspension in Roswell Park Memorial Institute (RPMI) 1640 medium supplemented with 10% fetal bovine serum (FBS), 10 mM HEPES KOH pH 7.4, and 2 mM sodium pyruvate. Mouse P388D1 (ATCC CCL-46) and WR19L (ATCC TIB-52) cells were grown in suspension in Dulbecco's Modified Eagle Medium (DMEM) with 10% fetal bovine serum (FBS), 10 mM HEPES, and 2 mM sodium pyruvate. Mouse WEHI231 (ATCC CRL-1702) and EL4 (ATCC TIB-39) cells were grown in suspension in DMEM with 10% fetal bovine serum (FBS), 10 mM HEPES KOH pH 7.4, 2 mM sodium pyruvate, and 0.05 mM β-mercaptoethanol. All cells were maintained at 37° C. in an atmosphere of 5% CO2 in air. Logarithmically growing cells were routinely sub-cultured twice weekly. Briefly, cells were collected by centrifugation, resuspended in pre-warmed media, and diluted 1:10 into a 75 cm^2 flask.
(§5) Cells were subcultured and 4×10^3 cells (in 50 μL) were transferred to each well in a Falcon 96-well tissue culture plate. Exemplary compounds were dissolved in pure dimethyl sulphoxide (DMSO) at a concentration of 10 mM. From this 10 mM stock solution, 12 successive serial dilutions were made in DMSO (2.5 fold dilutions), ranging from 0.52 μM to 10 mM. Using these stock dilutions, 5 μL of each were added to 500 μL of media, and 50 μL of this was added to the cells. The final concentrations being tested ranged from 0.0026 μM to 50 μM. Each concentration was tested in triplicate, and DMSO and untreated cells were also included as controls. After five days of incubation with the compounds, cell viability was determined using the XTT cell proliferation kit (Roche, Cat. No. 11 465 015 001). Following the XTT protocol, 4.5-24 hours after addition of the reagent, the plates were read in a μQuant 96-well plate spectrophotometer (Biotek Instruments Inc.) and the results analyzed to determine the IC50.

[3] = tested on: non-small cell lung cancer cells H226; test: XTT cell proliferation assay, H226; type: cell-based, human; details: 5 days incubation, read-out: Antiproliferative activity, NSCLC H226
Description: [The procedure below names another cell line; the source lists this cell line under the same test.] as §1, §2

[4] = tested on: non-small cell lung cancer cells HOP-92; test: XTT cell proliferation assay, HOP-92; type: cell-based, human; details: 5 days incubation, read-out: Antiproliferative activity, NSCLC HOP-92
Description: [The procedure below names another cell line; the source lists this cell line under the same test.] as §1, §2

[5] = tested on: panel of human and mouse lymphoma cell lines; test: Cell growth inhibition, whole lymphoma panel (mean IC50, mean rank); type: cell-based; details: mean over six lymphoma cell lines
Description: as §3, §5
In vitro potency was assessed using eight exemplary compounds against a panel of human and mouse lymphoma cell lines (Table 4). […] To compare the efficacy of the compounds in cell growth inhibition across the entire panel of cell lines screened, the eight compounds were ranked according to efficacy against each cell line with a numerical value of one indicating most efficacious (lowest IC50 value) and eight being the least efficacious (highest IC50 value).

[6] = tested on: WEHI 231 (mouse, B-cell lymphoma); test: Cell growth inhibition assay, WEHI231; type: cell-based; details: five days of incubation, XTT; read-out: IC50 WEHI231 (ms)
Description: as §3, §4, §5

[7] = tested on: P388D1 (mouse, lymphoma); test: Cell growth inhibition assay, P388D1; type: cell-based; details: five days of incubation, XTT; read-out: IC50 P388D1 (ms)
Description: as §3, §4, §5

[8] = tested on: human colon carcinoma cells KM12; test: XTT cell proliferation assay, KM12; type: cell-based; details: 5 days incubation, read-out: Antiproliferative activity, Colon KM12
Description: as §1, §2

[9] = tested on: WR19L (mouse, lymphoma); test: Cell growth inhibition assay, WR19L; type: cell-based; details: five days of incubation, XTT; read-out: IC50 WR19L (ms)
Description: as §3, §4, §5

[10] = tested on: leukemia cells HL60; test: XTT cell proliferation assay, HL60; type: cell-based, human; details: 5 days incubation, read-out: Antiproliferative activity, Leuk. HL60
Description: as §1, §2

[11] = tested on: human prostate cancer cell DU14; test: XTT cell proliferation assay, DU14; type: cell-based; details: 5 days incubation, read-out: Antiproliferative activity, Pros. DU14
Description: as §1, §2

[12] = tested on: human pancreatic cells BXPC3; test: XTT cell proliferation assay, BXPC3; type: cell-based; details: 5 days incubation, read-out: Antiproliferative activity, Pancreas BXPC3
Description: as §1, §2

[13] = tested on: human renal cancer cells ACHN; test: XTT cell proliferation assay, ACHN; type: cell-based; details: 5 days incubation, read-out: Antiproliferative activity, Kidney ACHN
Description: as §1, §2

[14] = tested on: human Burkitt's lymphoma Ramos cells; test: Cell growth inhibition assay, Ramos; type: cell-based; details: five days of incubation, XTT; read-out: IC50 Ramos (hs)
Description: as §3, §4, §5

[15] = tested on: Human Burkitt's lymphoma Raji cells; test: Cell growth inhibition assay, Raji; type: cell-based; details: five days of incubation, XTT; read-out: IC50 Raji (hs)
Description: as §3
Human Burkitt's lymphoma Raji cells (ATCC CCL-86) were grown in suspension in Roswell Park Memorial Institute (RPMI) 1640 medium supplemented with 10% fetal bovine serum (FBS), 10 mM HEPES KOH pH 7.4, and 2 mM sodium pyruvate at 37° C. in an atmosphere of 5% CO2 in air. Logarithmically growing cells were routinely sub-cultured twice weekly. Briefly, cells were collected by centrifugation, resuspended in pre-warmed media, and diluted 1:10 into a 75 cm^2 flask.
as §5

[16] = tested on: brain cancer/tumour cells U87-MG; test: XTT cell proliferation assay, U87-MG; type: cell-based, human; details: 5 days incubation, read-out: Antiproliferative activity, Brain U87-MG
Description: as §1, §2

[17] = tested on: non-small cell lung cancer cells EKVX; test: XTT cell proliferation assay, EKVX; type: cell-based, human; details: 5 days incubation, read-out: Antiproliferative activity, NSCLC EKVX
Description: [The procedure below names another cell line; the source lists this cell line under the same test.] as §1, §2

[18] = tested on: human pancreatic cells SU-86-86; test: XTT cell proliferation assay, SU-86-86; type: cell-based; details: 5 days incubation, read-out: Antiproliferative activity, Pancreas SU-86-86
Description: as §1, §2

[19] = tested on: brain cancer/tumour cells SK-N-AS; test: XTT cell proliferation assay, SK-N-AS; type: cell-based, human; details: 5 days incubation, read-out: Antiproliferative activity, Brain SK-N-AS
Description: as §1, §2

[20] = tested on: human non-small cell lung cancer cells H460; test: XTT cell proliferation assay, H460; type: cell-based; details: 5 days incubation, read-out: Antiproliferative activity, NSCLC H460
Description: as §1, §2

[21] = tested on: non-small cell lung cancer cells HOP-62; test: XTT cell proliferation assay, HOP-62; type: cell-based, human; details: 5 days incubation, read-out: Antiproliferative activity, NSCLC HOP-62
Description: [The procedure below names another cell line; the source lists this cell line under the same test.] as §1, §2

[22] = tested on: human renal cancer cells CAKI-1; test: XTT cell proliferation assay, CAKI-1; type: cell-based; details: 5 days incubation, read-out: Antiproliferative activity, Kidney CAKI-1
Description: as §1, §2

SMILES	IC50 [1] [nM]	IC50 [2] [nM]	IC50 [3] [nM]	IC50 [4] [nM]	IC50 [5] [nM]	IC50 [6] [nM]	IC50 [7] [nM]	IC50 [8] [nM]	IC50 [9] [nM]	IC50 [10] [nM]	IC50 [11] [nM]	IC50 [12] [nM]	IC50 [13] [nM]	IC50 [14] [nM]	IC50 [15] [nM]	IC50 [16] [nM]	IC50 [18] [nM]	IC50 [19] [nM]	IC50 [20] [nM]	IC50 [21] [nM]	other results
FC1(F)Oc2ccc(-c3nc4c5cccnc5c5ncccc5c4[nH]3)cc2O1 [Compound 2]	300	384	430	170	189	5.1	400	220	31	380	220	180	170	150	166	180					
FC1(F)Oc2ccc(-c3nc4c5cccnc5c5ncccc5c4[nH]3)cc2O1 [Compound 3]	220	451	390	170	205	4.2	377	230	59	150	170	180	170	139	197	154					
FC1(F)Oc2ccc(-c3nc4c5cccnc5c5ncccc5c4[nH]3)cc2O1 [Compound 4]	300	486	390	170	142	6.4	243	180	5.8	170	150	170	127	58	54	180	26	190	160	170	IC50 ([17]; Homo sapiens, EKVX, 120 h): 160 nM; IC50 [22]: 170 nM
FC1(F)Oc2ccc(-c3nc4c5cccnc5c5ncccc5c4[nH]3)cc2O1 [Compound 5]	170	518	190	170	190	12.6	414	280	9.3	110	180	200	130	75	109	180	28	90	140	210	IC50 [17]: 150 nM
FC1(F)Oc2ccc(-c3nc4c5cccnc5c5ncccc5c4[nH]3)cc2O1 [Compound 8]	285	199	710	160	69	3	146	583	5.1	110	150	210	203	34	25	190					
